Patent publication US20240024266A1, “Therapeutic Agent or Prophylactic Agent for COVID-19” (priority 2020, published 2024)
Read-outs that look alike come from different tables or passages of the source.

How the values were obtained:
SARS-CoV-2 [1] = assay: Inhibitory effect of ATRA on SARS-CoV-2 proliferation (nucleocapsid Western blotting and real-time PCR); assay type: cell-based; conditions: MOI 0.01, 24 hours
Protocol: In this Example, the inhibitory effect of SARS-CoV-2 proliferation by ATRA, a therapeutic agent for promyelocytic leukemia known to have inhibitory activity against Pin1. ATRA was added to VeroE6/TMPRSS2 cells to the final concentrations of 0, 0.5, 1, 5, 10, 20, and 30 μM, to which SARS-CoV-2 was infected at multiplicity of infection (MOI) of 0.01 after 2 hours, followed by recovering cell lysate after 24 hours and then detecting SARS-CoV-2 nucleocapsid, Pin1 and actin as an internal standard in the cells by Western blotting. SARS-CoV-2 proliferation was evaluated on the basis of the expression level of SARS-CoV-2 nucleocapsid in the cells.

SARS-CoV-2 [2] = assay: Confirmation test of suppressing effect against SARS-CoV-2 proliferation (nucleocapsid Western blotting, VeroE6/TMPRSS2 cells); assay type: cell-based; conditions: 20 μM Pin1 inhibitor, VeroE6/TMPRSS2 cells, MOI 10, cell lysate 8 hours after infection, nucleocapsid band area vs no inhibitor; for inhibition at 20 µM: Severe acute respiratory syndrome coronavirus 2, VeroE6/TMPRSS2, 8 h, read-out: Inhibition Rate
SARS-CoV-2 [3] = assay type: cell-based; conditions: MOI 0.01, 24 hours after infection, real-time PCR
SARS-CoV-2 [4] = assay: Suppressing effect against SARS-CoV-2 proliferation at 5 or 10 μM (nucleocapsid Western blotting); assay type: cell-based; conditions: 5 μM, MOI 10, cell lysate 8 hours after infection
SARS-CoV-2 [5] = assay type: cell-based; conditions: MOI 0.01 to 0.02, 24 hours
[6] = system: feline coronavirus (FCoV); conditions: cited from earlier work

| SMILES | inhibition at 20 µM (SARS-CoV-2 [2]) | also measured |
| --- | --- | --- |
| CC1=C(/C=C/C(C)=C/C=C/C(C)=C/C(=O)O)C(C)(C)CCC1 [ATRA] |  | proliferation of SARS-CoV-2 (SARS-CoV-2 [1]; 5 μM or more): suppressed; proliferation of SARS-CoV-2 (SARS-CoV-2 [1]; 10 μM or more): substantially suppressed |
| O=C(Nc1ccc(OCc2ccccc2)cc1C(=O)O)c1ccc2ccccc2c1 [H-77] |  | Inhibition Rate (SARS-CoV-2 [2]): 96%; proliferation of SARS-CoV-2 (SARS-CoV-2 RNA level in supernatant) (SARS-CoV-2 [3]; 5 μM): suppressed; proliferation of SARS-CoV-2 (SARS-CoV-2 RNA level in supernatant) (SARS-CoV-2 [3]; 7.5 μM): substantially suppressed; inhibition rate of SARS-CoV-2 nucleocapsid (Western blotting) (SARS-CoV-2 [4]): high inhibition rate; SARS-CoV-2 proliferation (SARS-CoV-2 [5]; 10 μM added 2 hours before the infection): suppressed; SARS-CoV-2 detection (SARS-CoV-2 [5]; 10 μM added 6 hours after the infection): slightly detected; SARS-CoV-2 proliferation (SARS-CoV-2 [5]; 10 μM added after the infection (2 hours, 6 hours)): suppressed; SARS-CoV-2 proliferation (SARS-CoV-2 [5]; 10 μM added at the time of the infection): suppressed |
| O=C(Cn1c2ccccc2c2ccccc21)Nc1ccc(OCc2ccc3ccccc3c2)cc1C(=O)O [H-537] | 96% | inhibition rate of SARS-CoV-2 nucleocapsid (Western blotting) (SARS-CoV-2 [4]): high inhibition rate |
| O=C(O)c1cc(NC(=O)c2ccc3ccccc3n2)cc(NC(=O)n2c3ccccc3c3ccccc32)c1 [H-688] | 98% | inhibition rate of SARS-CoV-2 nucleocapsid (Western blotting) (SARS-CoV-2 [4]): high inhibition rate |
| O=C(Nc1ccc(OCc2ccc3ccccc3c2)cc1C(=O)O)c1ccc2c(c1)OCCO2 [H-787] | 97% |  |
| O=C(Nc1ccc(OCc2ccccc2)cc1C(=O)O)c1ccc2c(c1)OCCO2 [H-800] | 91% |  |
| COC(=O)c1cc(N)cc(NC(=O)CN(c2ccccc2)c2ccccc2)c1 [H-816] | 63% |  |
| Nc1cc(NC(=O)CN(c2ccccc2)c2ccccc2)cc(C(=O)O)c1 [H-817] | 61% |  |
| O=C(CN(c1ccccc1)c1ccccc1)Nc1cc(NC(=O)c2ccc3ccccc3c2)cc(C(=O)O)c1 [H-819] | 95% |  |
| O=C(CN(c1ccccc1)c1ccccc1)Nc1cc(NC(=O)c2ccc3ccccc3n2)cc(C(=O)O)c1 [H-821] | 95% |  |
| COC(=O)c1cc(OCc2ccncc2)ccc1NC(=O)c1cccnc1 [H-832] | 65% |  |
| O=C(Cn1c2ccccc2c2ccccc21)Nc1ccc(OCc2ccccc2)cc1C(=O)O [H-835] | 99% |  |
| O=C(Cc1cccc2ccccc12)Nc1ccc(OCc2ccccc2)cc1C(=O)O [H-839] | 83% |  |
| COC(=O)[C@@H](Cc1ccc2ccccc2c1)NC(=O)c1ccc(CNC(=O)OC(C)(C)C)cc1 [H-848] | 53% |  |
| CC(C)(C)OC(=O)NCc1ccc(C(=O)N[C@H](Cc2ccc3ccccc3c2)C(=O)O)cc1 [H-849] | 50% |  |
| NCc1ccc(C(=O)N[C@H](Cc2ccc3ccccc3c2)C(=O)O)cc1 [H-851] | 59% |  |
| O=C(O)[C@@H](Cc1ccc2ccccc2c1)NC(=O)n1c2ccccc2c2ccccc21 [H-853] | 99% |  |
| COC(=O)c1cc(NC(=O)CC2c3ccccc3-c3ccccc32)cc(NC(=O)c2ccc3ccccc3c2)c1 [H-857] | 55% |  |
| COC(=O)c1cc(NC(=O)CC2c3ccccc3-c3ccccc32)cc(NC(=O)c2ccc3c(c2)OCCO3)c1 [H-859] | 89% |  |
| COC(=O)c1cc(NC(=O)c2ccc(CN)cc2)cc(NC(=O)n2c3ccccc3c3ccccc32)c1 [H-870] | 97% |  |
| NCc1ccc(C(=O)Nc2cc(NC(=O)n3c4ccccc4c4ccccc43)cc(C(=O)O)c2)cc1 [H-871] | 61% |  |
| COC(=O)c1cc(NC(=O)OC(C)(C)C)cc(NC(=O)n2ccc3ccccc32)c1 [H-872] | 78% |  |
| CC(C)(C)OC(=O)Nc1cc(NC(=O)n2ccc3ccccc32)cc(C(=O)O)c1 [H-873] | 67% |  |
| O=C(O)c1cc(NC(=O)c2ccc3c(c2)OCCO3)cc(NC(=O)n2ccc3ccccc32)c1 [H-876] | 69% |  |
| O=C(O)c1cc(NC(=O)c2ccc3ccccc3c2)cc(NC(=O)n2ccc3ccccc32)c1 [H-878] | 56% |  |
| COC(=O)c1cc(NC(=O)c2ccc(CN)cc2)cc(NC(=O)n2ccc3ccccc32)c1 [H-881] | 88% |  |
| COC(=O)c1cc(NC(=O)c2ccc(CN(C)C)cc2)cc(NC(=O)n2c3ccccc3c3ccccc32)c1 [H-890] | 54% |  |
| S=C(SC(=S)N1CCCCC1)N1CCCCC1 [dipentamethylenethiuram monosulfide] |  | replication of feline coronavirus (FCoV) [6]: inhibited |
